Series [1] concerns the target CYP3A4 (Homo sapiens (Human), UniProt P08684). Briefly: Inhibition test on cytochrome P450 subtype CYP3A4. It is filed as in vitro ADME. As to conditions: at 10 μM, compared with the control compound I. As to the method: The inhibitory potential of compounds on cytochrome P450 (CYP450) subtype CYP3A4 (two substrates of midazolam and testosterone) was detected. First, the compound to be tested was prepared into a 10 mM stock solution in DMSO solvent, and the CYP3A4 inhibitor ketoconazole was prepared as 10 mM, 2.5 mM and 2.5 mM stock solutions in DMSO solvent. The test compound and ketoconazole were diluted to 400-fold final concentration (compound: 10 μM, ketoconazole: 2.5 μM) with acetonitrile.
NADPH cofactor (10 mL of potassium phosphate buffer added with 66.7 mg NADPH) at 4-fold final concentration and substrates were prepared with potassium phosphate buffer (0.1 M, pH=7.4), with CYP3A4 substrate midazolam at a final concentration of […] and CYP3A4 substrate testosterone at a final concentration of 20 μM.
A human liver microsome solution at a concentration of 0.2 mg/mL was prepared with potassium phosphate buffer on ice. A solution of the compound to be tested and a control inhibitor (control compound) solution at 2-fold final concentration were prepared with the human liver microsome solution on ice. The test wells were added with […] of the test compound solution and the control inhibitor solution respectively, and then added with […] of the substrate for duplication. A 96-well assay plate and a NADPH solution were incubated at 37° C. for 5 min, and 15 μL of pre-heated 8 mM NADPH solution was added to the assay plate to initiate the reaction. A CYP3A4 assay plate was pre-incubated at 37° C. for 5 min. The plate was added with 120 μL of acetonitrile to terminate the reaction, and after quenching, the plate was shaken on a shaker (IKA, MTS 2/4) for 10 min (600 rpm/min), and then centrifuged for 15 min. After centrifugation, the supernatant was collected, and added with purified water in a ratio of 1:1 to perform LC-MS/MS detection. A ratio of a peak area of compound to a peak area of internal standard was obtained, and the peak area ratio of the compound was compared with the peak area ratio of the control inhibitor to calculate the inhibition rate.

Series [2] has as its target KRAS G12C-SOS1 (Homo sapiens (Human), UniProt Q07889). Briefly: Inhibition test of compounds on KRAS G12C::SOS1 binding. As to conditions: GST-KRAS G12C, His-SOS1. The method, then:
The compound to be tested was prepared into a 10 mM stock solution with DMSO, and the compound was serially diluted using 1× test buffer. 0.1 μL of the compound solution with different concentrations was transferred to a 384-well plate. […] 5 μL of His-SOS1 was added to the 384-well plate, centrifuged at 1000 rpm for 1 min, and incubated at room temperature for 15 min.
After incubation, 10 μL of a mixed solution of anti-6his-Tb monoclonal antibody (Cisbio, Cat. No. 61HI2TLA) and anti-GST-XL665 monoclonal antibody (Cisbio, Cat. No. 61GSTXLA) was added to the test well, centrifuged at 1000 rpm for 1 min, and incubated at room temperature for 1 h.
After incubation, the fluorescence signal ratios at 665 nm and 615 nm were read on a multifunctional microplate reader (Perkin Elmer, Envision 2104), and the IC50 values were calculated using Graphpad 5 software.

Series [3] deals with ERK phosphorylation level in DLD-1 cells. Description: Inhibition of ERK phosphorylation level in DLD-1 cells (intracellular western blot). The series is classed as cell-based. As to conditions: Homo sapiens. The method, then: Intracellular western blot quantitative analysis was used to detect the inhibitory level of compounds on ERK phosphorylation in DLD-1 cells.
DLD-1 cells (ATCC, CCL-221) were seeded in a T75 culture flask at 2.5×10^6 cells/flask and cultured in a RPMI 1640 medium containing 10% FBS for 2 days. On day 3, the cells were seeded on a 384-well plate, and cultured overnight at 37° C., 5% CO2. After overnight culture, the plate was added with serially diluted compounds (the final content of DMSO was 0.5%), the negative group was added with DMSO, and incubated in a 37° C., 5% CO2 incubator.
The cells were fixed, washed once with PBS, treated to disrupt membranes, and blocked at room temperature for 1 h. The blocking solution was removed. The plate was added with primary antibody (CST, Cat. No. #4370S), and incubated overnight at 4° C. The plate was washed 3 times with PBST (PBS solution added with 0.05% Tween-20) and soaked for 2 min each time. The plate was added with secondary antibody (LI-COR, Cat. No. 926-32211) and incubated at room temperature in the dark. The plate was washed 3 times with PBST and soaked for 2 min each time. The plate was centrifuged at 1000 rpm for 1 min, scanned on a two-color infrared laser imaging system (Odyssey® CLX) to read the signal.
Relative signal=800-channel signal values/700-channel signal values.
Relative expression level of ERK phosphorylation=(test compound−control compound I)/(DMSO group−control compound I)
(§1) IC50 values were calculated using Graphpad 5 software.

The subject of series [4] is H358 cells. Briefly: Inhibition of 3D cell proliferation (3D CellTiter-Glo). It is filed as cell-based. As to conditions: Homo sapiens, NCI-H358, 168 h, read-out: IC50 (nM), inhibition of 3D proliferation of H358 cells, 7 days. As to the method:
H358 cells were seeded in a T75 culture flask and cultured in a RPMI 1640 medium containing 10% FBS for 2 days for subsequent experiments in which the cells would be cultured or seeded on a 384-well plate.
On day 1, the cells were seeded on the 384-well plate, with 40 μL of medium added per well and serially diluted compounds or DMSO added per well, and an additional well without seeded cells but with medium was set up as a blank control. After culture at 37° C., 5% CO2 for 7 days, the plate was added with 3D CellTiter-Glo reagent (Promega, Cat. No. G9683) on day 8, shaken at 320 rpm for 20 min, and left at room temperature for 2 h. Luminescence signals were read on a multifunctional microplate reader. Cell viability inhibition rate was calculated as:
Cell viability inhibition rate=(DMSO group−test compound)/(DMSO group−blank control group)×100%
as §1

Series [5] can be described thus: Pharmacokinetic test in mice. The series is classed as in vivo. The note with it: mouse, plasma; male ICR mice, oral gavage, 10 mg/kg. As to the method:
Male ICR mice (20 to 25 g) were used and fasted overnight. Three mice were taken and orally administered by gavage (10 mg/kg). Blood was collected before the administration, and at 15 min, 30 min, 1 h, 2 h, 4 h, 8 h and 24 h after the administration. 6,800 g of the blood samples were centrifuged at 2 to 8° C. for 6 min, and plasma was collected and stored at −80° C. The plasma at each time point was taken and added with an acetonitrile solution containing internal standard in 3 to 5 times the amount, vortexed and mixed for 1 min, and centrifuged at 13,000 rpm/min at 4° C. for 10 min. The supernatant was collected, added with water in 3 times the amount, and mixed. An appropriate amount of the mixture was taken for LC-MS/MS analysis. The main pharmacokinetic parameters were analyzed using WinNonlin 7.0 software with non-compartmental model.

Series [6] concerns Mia Paca-2 pancreatic cancer. Briefly: Mia Paca-2 pancreatic cancer in vivo efficacy test. Also on record: species or system mice. The note with it: Mia Paca-2, 0.125 mg/kg BID. The method, then: After one week of adaptive feeding of mice, Mia Paca-2 cells in a log phase were resuspended in serum-free DMEM, and then mixed with Matrigel in a ratio of 1:1.1×10^7 Mia Paca-2 cells were inoculated subcutaneously at the right flank at 100 μL per mouse, and tumor growth was observed regularly. When the tumor grew to an average volume of 150 to 200 mm^3, the mice were randomly divided into a model group and an administration group (single drug, in combination with trametinib) based on the tumor size and body weight. The tumor size and body weight were measured and recorded before and during the administration. After the treatment, the tumor size in the model group was compared with that in the administration group to determine the efficacy.

SMILES strings stand for the structures.

Chain of KRAS G12C-SOS1 (Q07889 whole entry, stated change not applied): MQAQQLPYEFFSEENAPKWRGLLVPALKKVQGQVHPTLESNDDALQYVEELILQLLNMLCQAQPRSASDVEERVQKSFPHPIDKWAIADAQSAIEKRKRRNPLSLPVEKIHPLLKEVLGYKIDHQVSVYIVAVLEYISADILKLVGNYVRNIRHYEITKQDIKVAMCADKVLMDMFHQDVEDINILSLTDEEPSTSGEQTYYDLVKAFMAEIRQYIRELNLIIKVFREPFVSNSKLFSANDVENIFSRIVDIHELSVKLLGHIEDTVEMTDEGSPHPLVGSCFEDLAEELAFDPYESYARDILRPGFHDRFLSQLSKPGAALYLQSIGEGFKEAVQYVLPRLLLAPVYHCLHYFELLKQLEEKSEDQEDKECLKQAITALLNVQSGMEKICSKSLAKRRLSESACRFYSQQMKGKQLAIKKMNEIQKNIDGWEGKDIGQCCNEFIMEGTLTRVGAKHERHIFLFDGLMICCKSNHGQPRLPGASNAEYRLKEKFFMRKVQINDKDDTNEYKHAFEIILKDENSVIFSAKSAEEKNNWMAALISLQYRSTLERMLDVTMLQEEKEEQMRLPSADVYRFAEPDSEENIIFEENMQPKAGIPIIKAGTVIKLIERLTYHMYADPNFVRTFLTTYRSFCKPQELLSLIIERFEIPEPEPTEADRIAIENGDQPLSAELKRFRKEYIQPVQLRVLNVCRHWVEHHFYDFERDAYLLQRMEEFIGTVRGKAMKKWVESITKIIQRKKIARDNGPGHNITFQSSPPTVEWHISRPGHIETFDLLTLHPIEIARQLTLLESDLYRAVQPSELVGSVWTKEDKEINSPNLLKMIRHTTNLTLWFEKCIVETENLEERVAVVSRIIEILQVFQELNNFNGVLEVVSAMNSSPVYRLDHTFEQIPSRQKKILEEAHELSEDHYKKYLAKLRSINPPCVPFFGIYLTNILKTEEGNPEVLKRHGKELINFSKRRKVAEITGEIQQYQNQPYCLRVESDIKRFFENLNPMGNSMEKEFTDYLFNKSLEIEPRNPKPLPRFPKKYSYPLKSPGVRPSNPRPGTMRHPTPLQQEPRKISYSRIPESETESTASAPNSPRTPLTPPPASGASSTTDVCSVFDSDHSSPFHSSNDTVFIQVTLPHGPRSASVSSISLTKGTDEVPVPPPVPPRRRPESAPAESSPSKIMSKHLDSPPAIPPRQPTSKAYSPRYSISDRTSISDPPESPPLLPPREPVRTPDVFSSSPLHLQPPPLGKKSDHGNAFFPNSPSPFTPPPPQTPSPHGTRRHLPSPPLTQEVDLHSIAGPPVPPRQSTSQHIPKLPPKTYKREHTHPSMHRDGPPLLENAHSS
Chain of CYP3A4 (P08684 whole entry): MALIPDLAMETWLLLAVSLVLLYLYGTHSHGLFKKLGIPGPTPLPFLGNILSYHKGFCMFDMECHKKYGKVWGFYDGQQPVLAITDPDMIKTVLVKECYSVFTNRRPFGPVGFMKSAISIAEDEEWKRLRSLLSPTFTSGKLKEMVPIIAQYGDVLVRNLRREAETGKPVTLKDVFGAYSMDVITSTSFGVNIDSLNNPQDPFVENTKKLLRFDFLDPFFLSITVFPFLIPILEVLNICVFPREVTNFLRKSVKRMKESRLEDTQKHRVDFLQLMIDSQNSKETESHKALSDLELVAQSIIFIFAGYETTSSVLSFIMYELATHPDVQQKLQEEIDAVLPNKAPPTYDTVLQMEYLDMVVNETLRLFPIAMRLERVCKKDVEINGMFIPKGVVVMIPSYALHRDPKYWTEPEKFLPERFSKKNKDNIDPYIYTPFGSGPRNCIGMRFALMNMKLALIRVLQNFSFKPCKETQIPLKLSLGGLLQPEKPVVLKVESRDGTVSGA

For the compound `Cc1nc(N[C@H](C)c2cccc(S(F)(F)(F)(F)F)c2)c2cn(C3(CF)CC3)c(=O)cc2n1` [Compound I-3, (R)-6-(1-(fluoromethyl)cyclopropyl)-2-methyl-4-((1-(3-(pentafluorosulfanyl)phenyl)ethyl)amino)pyrido[4,3-d]pyrimidin-7(6H)-one], the “inhibitory effect on CYP3A4 enzymes (in words)” value in series [1] was “more significant inhibitory effect”.

`Cc1nc(N[C@H](C)c2cccc(OC(F)F)c2F)c2cn(C3(C(F)F)CC3)c(=O)cc2n1` [Compound I-12, (R)-4-((1-(3-(difluoromethoxy)-2-fluorophenyl)ethyl)amino)-6-(1-(difluoromethyl)cyclopropyl)-2-methylpyrido[4,3-d]pyrimidin-7(6H)-one]: the values for the IC50 in series [2] and in series [3] were 22.2 nM and 196 nM, respectively.

Turning to `COCC1(n2cc3c(N[C@H](C)c4cccc(S(F)(F)(F)(F)F)c4)nc(C)nc3cc2=O)CC1` [Compound I-13, (R)-6-(1-(methoxymethyl)cyclopropyl)-2-methyl-4-((1-(3-(pentafluorosulfanyl)phenyl)ethyl)amino)pyrido[4,3-d]pyrimidin-7(6H)-one], the values for the IC50 in series [3] and in series [4] were 109 nM and 15.7 nM, respectively.

In the case of `Cc1nc(N[C@H](C)c2cccc(S(F)(F)(F)(F)F)c2)c2cn([C@H]3C[C@](C)(O)C3)c(=O)cc2n1` [Compound I-15, 6-((1r,3R)-3-hydroxy-3-methylcyclobutyl)-2-methyl-4-(((R)-1-(3-(pentafluorosulfanyl)phenyl)ethyl)amino)pyrido[4,3-d]pyrimidin-7(6H)-one], the IC50 in series [2] turned out to be 14.4 nM.

Turning to `Cc1nc(N[C@H](C)c2cccc(S(F)(F)(F)(F)F)c2)c2cn(C3CC(F)(F)C3)c(=O)cc2n1` [Compound I-16, (R)-6-(3,3-difluorocyclobutyl)-2-methyl-4-((1-(3-(pentafluorosulfanyl)phenyl)ethyl)amino)pyrido[4,3-d]pyrimidin-7(6H)-one], the IC50 in series [2] was determined as 16.1 nM.

As to `CC(=O)N1CCC(C)(n2cc3c(N[C@H](C)c4cccc(S(F)(F)(F)(F)F)c4)nc(C)nc3cc2=O)CC1` [Compound I-17, (R)-6-(1-acetyl-4-methylpiperidin-4-yl)-2-methyl-4-((1-(3-(pentafluorosulfanyl)phenyl)ethyl)amino)pyrido[4,3-d]pyrimidin-7(6H)-one], the IC50 in series [3] stood at 119 nM; in series [4], 12.1 nM.

For the compound `CC(=O)N1CCC(C)(n2cc3c(N[C@H](C)c4cccc(S(F)(F)(F)(F)F)c4)nc(C)nc3cc2=O)C1` (stereo partly drawn) [Compound I-18, 6-(1-acetyl-3-methylpyrrolidin-3-yl)-2-methyl-4-(((R)-1-(3-(pentafluorosulfanyl)phenyl)ethyl)amino)pyrido[4,3-d]pyrimidin-7(6H)-one], the IC50 in series [3] turned out to be 115 nM; in series [4] it was 9.2 nM.

For the compound `Cc1nc(N[C@H](C)c2cccc(S(F)(F)(F)(F)F)c2)c2cn([C@H]3C[C@H](F)C3)c(=O)cc2n1` [Compound I-19, 6-((1R,3R)-3-fluorocyclobutyl)-2-methyl-4-(((R)-1-(3-(pentafluorosulfanyl)phenyl)ethyl)amino)pyrido[4,3-d]pyrimidin-7(6H)-one], the figures for the IC50 in series [2], in series [3] and in series [4] were 9.5 nM, 131 nM and 137 nM, respectively.

As to `Cc1nc(N[C@H](C)c2cccc(S(F)(F)(F)(F)F)c2)c2cn(C3(C)CCOC3)c(=O)cc2n1` (stereo partly drawn) [Compound I-20, 2-methyl-6-(3-methyltetrahydrofuran-3-yl)-4-(((R)-1-(3-(pentafluorosulfanyl)phenyl)ethyl)amino)pyrido[4,3-d]pyrimidin-7(6H)-one], the IC50 came out at 92 nM in series [3] and 31 nM in series [4].

In the case of `Cc1nc(N[C@H](C)c2cccc(S(F)(F)(F)(F)F)c2)c2cn(C3(C)CCOCC3)c(=O)cc2n1` [Compound I-21, (R)-2-methyl-6-(4-methyltetrahydro-2H-pyran-4-yl)-4-((1-(3-(pentafluorosulfanyl)phenyl)ethyl)amino)pyrido[4,3-d]pyrimidin-7(6H)-one], the IC50 worked out at 6.9 nM in series [2], 141 nM in series [3] and 85.1 nM in series [4].

For the compound `Cc1nc(N[C@H](C)c2cccc(S(F)(F)(F)(F)F)c2)c2cn(C3(C)CC3)c(=O)cc2n1` [Compound I-22, (R)-2-methyl-6-(1-methylcyclopropyl)-4-((1-(3-(pentafluorosulfanyl)phenyl)ethyl)amino)pyrido[4,3-d]pyrimidin-7(6H)-one], the IC50 in series [2] came out at 21.7 nM; in series [4], 10.7 nM.

In the case of `Cc1nc(N[C@H](C)c2cccc(C(F)F)c2F)c2cn(C3(C(F)F)CC3)c(=O)cc2n1` [Control compound II, reference compound], in series [5], the AUC(0-t) (usually the area under the concentration-time curve up to a stated or last time point) was 1000 ng·h/mL; the peak level (Cmax) was 669 ng/mL; the Tmax (usually the time from dosing to the highest level) stood at 30 min; the half-life (as a rule, the time in which the quantity being followed falls by half) is 57.6 min.

For the compound `CC(=O)Nc1cccc(-n2c(=O)n(C3CC3)c(=O)c3c(Nc4ccc(I)cc4F)n(C)c(=O)c(C)c32)c1` [Trametinib, reference compound], the “Tumor weight inhibition rate (relative to the vehicle group)” value in series [6] was determined as 80%.

The values are drawn from US20240166645A1, “PYRIDOPYRIMIDINONE DERIVATIVE, PREPARATION METHOD THEREFOR, AND USE THEREOF” (Wuhan Humanwell Innovative Drug Research and Development …, priority 2021, published 2024).
